Data on four molecules can be found in publication PMC12523804, “Evaluation of molecular mechanisms of (Z)-3-(pentadec-10′-enyl)-catechol (litreol) and synthetic derivatives as inhibitors of human leukotriene biosynthesis” (Redox Biology, 2025).

Like-named read-outs stand apart in the source and are kept apart here.

Data set [1] has as its target T1, 5-LO (Homo sapiens, UniProt P09917).
T1 sequence (P09917 1-674): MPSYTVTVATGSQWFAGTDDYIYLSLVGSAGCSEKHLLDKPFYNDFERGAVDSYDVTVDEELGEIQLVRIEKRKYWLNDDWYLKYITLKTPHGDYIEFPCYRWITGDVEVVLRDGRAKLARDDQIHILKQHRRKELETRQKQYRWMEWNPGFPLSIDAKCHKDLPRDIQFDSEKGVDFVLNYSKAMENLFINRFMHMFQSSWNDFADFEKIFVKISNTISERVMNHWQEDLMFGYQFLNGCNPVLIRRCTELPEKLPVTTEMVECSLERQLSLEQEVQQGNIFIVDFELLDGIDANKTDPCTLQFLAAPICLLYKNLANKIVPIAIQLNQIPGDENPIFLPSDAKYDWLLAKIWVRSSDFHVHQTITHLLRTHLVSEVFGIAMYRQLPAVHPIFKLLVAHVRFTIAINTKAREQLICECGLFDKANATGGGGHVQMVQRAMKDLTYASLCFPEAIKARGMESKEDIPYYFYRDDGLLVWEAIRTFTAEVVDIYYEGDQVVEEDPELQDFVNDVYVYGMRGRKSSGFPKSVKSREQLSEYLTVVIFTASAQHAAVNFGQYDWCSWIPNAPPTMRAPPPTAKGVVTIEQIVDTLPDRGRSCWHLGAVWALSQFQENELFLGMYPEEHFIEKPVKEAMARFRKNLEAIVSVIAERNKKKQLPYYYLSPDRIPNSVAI
Put plainly: 5-LO product formation in intact human PMNL (neutrophils). The conditions noted are these: intact human PMNL. The format is cell-based. Further details: endogenous in cells; host or cells: human PMNL from peripheral blood of healthy volunteers. How it is done: PMNL and monocytes were isolated from human peripheral blood of adult healthy volunteers, with consent, obtained from the Institute of Transfusion Medi-cine, University Hospital Jena (Germany). PMNL were immediately isolated by dextran sedi-mentation, centrifugation on Nycoprep cushions, and hypotonic lysis of erythrocytes, as described. PMNL viability was analyzed by trypan blue exclusion with a Vi-cell counter (Beckmann Coulter GmbH, Krefeld). HEK-293 cells were grown in DMEM/High Glucose (4.5 g/L) medium supplemented with heat-inactivated fetal calf serum (FCS, 10 %, vv_1), 100 U/mLpenicillin, and 100 µg/mL streptomycin at 37 °C in a 5 % CO2 incubator. HEK-293 cells were stably transfected with 5-LO and FLAP as validated experimental cell-based model for studying the regulation of 5-LO [28]. None of the cell lines used in this study were authenticated.
Freshly isolated human PMNL (5 × 10^6) were resuspended in 1 mL PBS buffer containing 1 mg/mL glucose (PG buffer). […] After 10 min at 37 °C, the reaction was stopped with 1 mL of methanol for 10 min on ice and LO products formed and released in the supernatants were extracted and analyzed by HPLC. In detail, after centrifugation (800g, 10 min, room temperature) the samples were applied to C-18 solid-phase extraction columns (100 mg; IST, Mid Glamorgan, United Kingdom), preconditioned with 1 mL methanol and 1 mL water. The columns were washed with 1 mL water and 1 mL water/methanol (75/25, vol/vol) and 5-LO metabolites were eluted with 300 μL methanol. The extract was then diluted with 120 μL water, and 100 μL diluted extract were analyzed by HPLC using a C-18 Radial-Pak column (Waters) eluted with methanol/water/acetic acid 75/25/0.1 (vol/vol/vol) at a flow rate of 1.2 mL/min. Amounts of different metabolites were determined by peak area integration. 5-LO products analyzed include LTB4 and its two all-trans isomers, 5(S)-hydroxy-6-trans-8,11,14-cis-eicosatetraenoic acid (5-HETE), and 5(S)-hydroper-oxy-6-trans-8,11,14-cis-eicosatetraenoic acid (5-HpETE). 5-HETE and 5-HpETE coelute as one major peak, and the integration of this peak represented both eicosanoids.

Data set [2] deals with T1, 5-LO. Kind of data set: cell-free 5-LO activity assay with purified human recombinant 5-LO. The conditions noted are these: for IC50: purified human recombinant 5-LO, 20 μM AA, read-out: Cell-free (IC50 of 5-LO activity); for 5-LO inhibition in the cell free assay: up to 10 μM. Further details: made in house. The format is biochemical. The protocol:
5-LO was expressed in E. coli B121 (DE3) transformed with pT3- 5LO plasmid, and purification of 5-LO was performed as described previously. Briefly, E. coli was lysed in 50 mM tri-ethanolamine/HCl, pH 8.0, 5 mM EDTA, […] soybean trypsin inhibitor, 1 mM phenylmethanesulfonyl fluoride, 1 mM dithiothreitol and 1 mg/mL lysozyme and then sonified (3 × 15 s). The homogenate was then centrifuged at 40,000g for 20 min at 4°C. 5-LO in the supernatant was partially purified by affinity chromatography on an ATP-agarose column (Sigma-Aldrich). Semi-purified 5-LO was diluted in PBS containing EDTA (1 mM) and ATP (1 mM) and immediately used for 5-LO activity assays. Samples were pre-incubated with the test compounds or vehicle (0.1 % DMSO) for 10 min at 4°C. Samples were pre-warmed for 30 s at 37°C, and 2 mM CaCl2 plus the indicated concentrations of AA were added to start 5-LO product formation. The reaction was stopped after 10 min by addition of one volume of ice-cold methanol, and the formed metabolites were analyzed by HPLC. 5- LO products include the all-trans isomers of LTB4 as well as 5-HPETE and its corresponding alcohol 5-HETE.

The next data set concerns the target T2, 12-LO (Homo sapiens, UniProt P18054).
T2 construct: endogenous in cells; host or cells: human PMNL preparations
T2 sequence (P18054 1-663): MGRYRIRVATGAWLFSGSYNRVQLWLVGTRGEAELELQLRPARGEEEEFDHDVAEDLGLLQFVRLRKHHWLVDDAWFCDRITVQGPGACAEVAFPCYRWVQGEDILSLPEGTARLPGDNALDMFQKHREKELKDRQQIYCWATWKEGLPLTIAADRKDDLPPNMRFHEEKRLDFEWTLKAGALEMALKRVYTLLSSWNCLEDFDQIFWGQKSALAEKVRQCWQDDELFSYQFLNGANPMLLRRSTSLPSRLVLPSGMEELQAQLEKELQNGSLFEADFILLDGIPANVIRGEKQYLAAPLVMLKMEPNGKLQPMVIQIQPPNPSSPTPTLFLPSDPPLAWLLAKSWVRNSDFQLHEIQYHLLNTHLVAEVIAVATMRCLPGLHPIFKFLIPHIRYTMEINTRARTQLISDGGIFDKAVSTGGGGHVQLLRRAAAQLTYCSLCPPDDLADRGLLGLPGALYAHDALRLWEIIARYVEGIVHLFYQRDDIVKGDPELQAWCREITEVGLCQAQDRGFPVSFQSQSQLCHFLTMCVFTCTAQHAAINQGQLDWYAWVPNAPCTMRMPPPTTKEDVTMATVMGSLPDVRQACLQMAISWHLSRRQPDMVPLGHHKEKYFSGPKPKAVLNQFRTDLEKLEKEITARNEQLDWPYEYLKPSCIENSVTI
Kind of data set: 12-LO product formation in intact human PMNL. The format is cell-based. The conditions noted are these: for IC50: PMNL, 2.5 μM A23187 plus 20 μM AA, read-out: LTC4; for effect on 12-LO activity: at 10 μM.

The subject of the next data set is human PMNLs. Kind of data set: Lactate dehydrogenase release (LDH assay) in PMNL. The format is cell-based. How it is done: After treatment of PMNL, supernatants were centrifuged (600g × 5 min, 4 °C), and 100 μL of supernatant were mixed with 200 μL LDH reaction buffer (75 mM Tris/HCl, pH 7.4, 0.3 mM NADH, 1.5 mM Na-pyruvate) in a 96-well plate. The decrease of NADH was measured immediately by absorbance at 340 nm in a kinetic mode (every 7 s for 20 min; Multiskan Spectrum). As a positive control for maximal LDH release, cells treated with 1 % Triton X-100 were included in each experiment, while untreated cells and vehicle (DMSO) served as negative controls.

Data set [3] deals with 5-lipoxygenase (5-LO). Further details: method as in PMID 31523435. The conditions noted are these: read-out: IC50 in isolated human neutrophils; cited from earlier work.
Data set [4] concerns the target 5-lipoxygenase (5-LO). Further details: method as in PMID 31523435. The conditions noted are these: read-out: IC50 in whole blood; cited from earlier work.
The test system of data set [5] is 5-LO. Further details: method as in PMID 23871907. The conditions noted are these: cited from earlier work.
Another data set relates to mPGES-1. Also on record: method as in PMID 23871907. The conditions noted are these: cited from earlier work.
The mark [6] stands for this setting: […] A23187 plus 20 μM AA, 10 min, read-out: Cell-based A23187 + AA (IC50 of 5-LO product formation).

Take `CCCCCCCCCCCCCCCc1cccc(OC(C)=O)c1OC(C)=O` [AS, 1,2-diacetoxy-3-pentadecylbenzene]: the IC50 at 5-LO [1] (setting [6]) was greater than 10000 nM. Moreover, at 5-LO [2], the IC50 is greater than 10000 nM and the “5-LO inhibition in the cell free assay” value is recorded as “No significant 5-LO inhibition”. Moreover, on 12-LO, the IC50 is greater than 10000 nM and the “effect on 12-LO activity” value was “no significant effect”. In the data set with human PMNLs, the “cytotoxicity on PMNL (LDH levels in the supernatants)” value is given as “comparable to those of untreated controls”.
Regarding `O=C(/C=C/c1ccc(O)c(O)c1)OCCc1ccccc1` [CAPE, Caffeic acid phenethyl ester], the results for the IC50 at 5-lipoxygenase (5-LO) [3] and at 5-lipoxygenase (5-LO) [4] were 500 nM and 1800 nM, respectively.
Consider `CCCC/C=C\CCCCCCCCCc1cccc(OC(C)=O)c1OC(C)=O` [AI, (Z)-1,2-diacetoxy-3-(pentadec-10′-enyl)-benzene], for which the IC50 on 5-LO [1] ([…] A23187, 10 min, read-out: Cell-based A23187 (IC50 of 5-LO product formation)) is greater than 10000 nM; at 5-LO [1] (setting [6]), 1500 ± 1400 nM; on 5-LO [2] it was greater than 10000 nM; on 12-LO it was greater than 10000 nM. Besides, the “5-LO inhibition in the cell free assay” value on 5-LO [2] is given as “No significant 5-LO inhibition”. Besides, the “effect on 12-LO activity” value at 12-LO is reported as “no significant effect”. In addition, the “cytotoxicity on PMNL (LDH levels in the supernatants)” value in the data set on human PMNLs was “comparable to those of untreated controls”.
Consider `CCCCCCCCCCCC1=C(O)C(=O)C=C(O)C1=O` [embelin], for which the IC50 was 60 nM in the data set on 5-LO [5] and 200 nM in the data set with mPGES-1.
